{"source": "patent US8338473B2", "about": "“Derivatives of psammaplin A, a method for their synthesis and their uses for the prevention or treatment of cancer” (Centre National de la Recherche Scientifique, priority 2007, dated 2012)", "key": {"[1]": {"test_system": "U937 acute myeloid leukemia cell line", "assay": "Cell cycle analysis in U937 cells", "assay_type": "cell-based, human", "settings": "U937, 30 hrs", "experimental": "(§1) FIG. 1: a) Cell cycle analysis of U937 cells treated for 30 hrs with the indicated compounds used at 1 and 5 μM; b) Caspase 3 apoptotic assay of the indicated compounds after 24 hrs of treatment in the U937 cells; c) Tubulin acetylation and p21 expression levels at 6 and 16 hrs after treatment with the indicated compounds; total tubulin expression levels are used for equal loading; d) Histone H3 acetylation and K9 H3 methylation expression levels at 6 and 16 hrs after treatment with the indicated compounds; total tubulin expression levels are used for equal loading; e) K9, K14, K18 histone H3 acetylation expression levels at 6 and 16 hrs after treatment with the indicated compounds; total ERKs expression levels are used for equal loading; f) HDAC1 enzymatic assay: IP-HDAC1 is incubated with the indicated inhibitors for 24 Hrs; activity is measured as ^3H-acetyl release; g) HDAC4 enzymatic assay: IP-HDAC4 is incubated with the indicated inhibitors for 24 hrs; activity is measured as ^3H-acetyl release.\nFIG. 3: a) Cell cycle and apoptosis analysis carried out in U937 cells after 24 hrs with the indicated compounds; values are media of independent triplicates; b) CD11c expression analysis carried out in U937 cells with the indicated compounds; values are media of independent duplicates; c) Tubuline acetylation and p21 expression levels in U937 cells after 24 hrs with the indicated treatments; total ERKs expression levels are used for equal loading; d) acetylation of histone H3 under the conditions indicated in (c).\nHuman leukemia cell line U937 was propagated in RPMI medium supplemented with 10% FBS (Foetal bovine serum; Hyclone) and antibiotics (100 U/mL penicillin, 100 μg/mL streptomycin and 250 ng/mL amphotericin-B). Cells were kept at the constant concentration of 200000 cells per milliliter of culture medium. For AML samples, bone marrow containing 80% to 90% leukemic blasts was purified over Ficoll. This study was approved by the Ethical Committee of the Second University of Naples.\nMS-275 (Schering A G) was dissolved in ethanol and used at 5×10^−6M; valproic acid (VPA; Sigma) was used at 1 mM. All other compounds described were dissolved in DMSO (Sigma-Aldrich) and used at 1 or 5 μM.\n2.5×10^5 cells were collected and resuspended in 500 μL of a hypotonic buffer (0.1% Triton X-100, 0.1% sodium citrate, 50 μg/mL propidium iodide, RNAse A). Cells were incubated in the dark for 30 min. Samples were acquired on a FACS-Calibur flow cytometer using the Cell Quest software (Becton Dickinson) and analysed with standard procedures using the Cell Quest software (Becton Dickinson) and the ModFit LT version 3 Software (Verity). All the experiments were performed 3 times."}, "TRAIL promoter": {"test_system": "TRAIL promoter", "assay": "Histone H3 acetylation at the TRAIL locus (Chip and qPCR) in U937 cells", "assay_type": "cell-based, human", "settings": "U937, time course", "experimental": "FIG. 5: a) Analysis of the histone H3 acetylation levels on the TRAIL promoter regulatory region and on the TRAIL gene first intron carried out Chip and qPCR in U937 cells after the indicated time course with UVI5008; the ‘NoAb’ represents the negative control; b) TRAIL mRNA expression after the indicated times of incubation with UVI5008; G6PDH levels have been used for equal loading; c) TRAIL protein expression levels measured by ELISA assay in U937 cells after 24 hrs treatment with UVI5008."}, "HDAC1": {"target": "HDAC1 (Homo sapiens, UniProt Q13547)", "sequence (Q13547 whole entry, species assumed)": "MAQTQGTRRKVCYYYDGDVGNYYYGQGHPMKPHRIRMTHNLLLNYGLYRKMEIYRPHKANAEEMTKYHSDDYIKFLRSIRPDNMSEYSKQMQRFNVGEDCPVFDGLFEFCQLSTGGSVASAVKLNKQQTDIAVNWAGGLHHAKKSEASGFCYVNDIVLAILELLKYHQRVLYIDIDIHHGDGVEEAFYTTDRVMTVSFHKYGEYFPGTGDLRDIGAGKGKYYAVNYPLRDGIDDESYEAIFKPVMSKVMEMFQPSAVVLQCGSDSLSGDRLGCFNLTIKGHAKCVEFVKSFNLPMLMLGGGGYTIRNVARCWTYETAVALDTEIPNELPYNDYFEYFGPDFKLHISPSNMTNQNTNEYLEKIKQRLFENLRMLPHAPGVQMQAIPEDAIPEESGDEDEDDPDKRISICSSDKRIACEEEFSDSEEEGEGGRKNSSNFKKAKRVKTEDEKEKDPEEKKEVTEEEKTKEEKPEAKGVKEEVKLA", "assay": "HDAC1 enzymatic assay (IP-HDAC1, 3H-acetyl release)", "assay_type": "biochemical", "settings": "IP-HDAC1 incubated with inhibitor 24 hrs", "experimental": "as §1"}, "[2]": {"test_system": "DNA methyltransferase (DNMT)", "assay": "DNMT enzymatic in vitro assay", "assay_type": "biochemical", "settings": "1.5 and 50 μM", "experimental": "FIG. 2: a) Methylation specific PCR for the RARβ gene after 16 and 24 hrs of treatment with the indicated compounds; b) Methylation specific PCR for the p16 gene after 24 hrs of the indicated treatments. Samples are representative of real duplicates; c) p16 expression levels in U937 cells after 24 hrs with the indicated treatments; d) DNMT enzymatic in vitro assay carried out with 1.5 and 50 μM of the indicated compounds;"}, "histone H3, H3K56": {"test_system": "histone H3, H3K56", "assay": "Post-translational modifications on histone proteins (mass spectrometry, SILAC)", "assay_type": "cell-based, human", "settings": "U937 (and other) cells, 24 h, 5 μM", "experimental": "U937 cells were grown in RPMI medium in the presence of lysine and arginine (‘light’) or istope versions, Arg10 and Lys8 (‘heavy’). […]. As controls, cell grown in heavy medium were treated for 24 h with DMSO. Light and heavy cells were 7.5×10^6 cells harvest and mixed in 1:1 ratio (total 15×10^6 cells). The cells were washed twice with PBS and the cell pellet was stored at −80° C.\nCells were resuspended in 750 μl Triton Extraction Buffer (TEB: PBS containing 0.5% Triton X 100 (v/v), 2 mM phenylmethylsulfonyl fluoride (PMSF) and 0.02% (w/v) NaN3) and lysed on ice for 10 min with gentle stirring. The lysate was centrifuged for 10 min at 6000 rpm and the supernatant discarded. The pellet was washed with 375 μl of TEB and peletted by centrifugation as before. Pellet is resuspended in 20 μl 250 mM HCl and acid extraction of the histones was performed o/n at 4° C.\nExtracted histones were cleared by centrifugation and separated on a 15% acrylamide gel and the gel was stained with Coomassie. The gel region containing the histones was sliced, reduced and alkylated in gel. Proteins were digested o/n with trypsin (Promega). Peptides were eluted from the gel with trifluoroacetic acid. […]\nU937 cells were treated with UVI5008 for 24 hrs and histones were acid extracted. Proteins were digested with trypsin and the peptides were analysed using a nanoLC that is online with a FT-ICR mass spectrometer. […]"}}}
{"molecule": "O=C(NCCSSCCNC(=O)C(Cc1c[nH]c2ccc(Br)cc12)=NO)C(Cc1c[nH]c2ccc(Br)cc12)=NO", "note": "[UVI5008]", "values": [{"measurement": "cell cycle arrest, position of the block", "setting": "[1]; 1 μM", "result": "arrests cells in G2-M"}, {"measurement": "cell cycle arrest, position of the block", "setting": "[1]; 1 and 5 μM", "result": "arrests in the S and G2 phases"}, {"measurement": "H3K9 acetylation of the chromatin at the TRAIL promoter", "setting": "TRAIL promoter", "result": "rapid dramatic H3K9 acetylation"}, {"measurement": "HDAC1 inhibition", "setting": "HDAC1", "result": "blocks HDAC1 activity nearly quantitatively"}, {"measurement": "DNMT inhibition", "setting": "[2]", "result": "nearly as active as RG108 albeit at higher concentrations"}, {"measurement": "post-translational modifications on histone proteins", "setting": "histone H3, H3K56", "result": "identification of a novel acetylated lysine residue in histone H3, H3K56"}]}
